Experimental findings from patent US20040242974A1, “Treatment of refractory depression with an opiate antagonist and an antidepressant” (priority 2001, published 2004) are described below.

Structures are written as SMILES. “And” between values parts separate entries of the source, which are not always exact repeats. Equal entries are not always repeated.

The subject of one data set is depression. In words: Clinical observation / patient report of response to medication (case reports). The data set is classed as in vivo, human. The settings on record: A person; for Response to antidepressants in the past: earlier episodes of unipolar depression, recurrent type. Here is the method:
Both antidepressants were stopped and they were then administered desipramine (a tricyclic antidepressant) up to 150 mg./day for 4 weeks. […] Desipramine was discontinued and a person was started on a course of electric shock treatment (ECT) on an outpatient basis. They received a total number of 8 treatments, administered 2 times per week.
(§1) Mrs. […] Lithium carbonate 300 mg. b.i.d. was added to the Prozac for one week, and afterward Prozac was increased over the next 4 weeks to 60 mg./day. […] In succession, they were tried on amitriptyline up to 300 mg./day with monitoring of medication blood levels, and venlafaxine up to 375 mg./day.

The conditions of data set [1]: A person; lithium carbonate 300 mg b.i.d. As for the experimental part: as §1
Data set [2] concerns refractory depression characterized by dissociation. Put plainly: Glover Numbing Scale (GNS) self-report questionnaire measuring numbness/dissociation in the treated patient. The data set is classed as in vivo, human. The source says:
The Glover Numbing Scale was constructed to measure symptoms associated with the numb responses, and provides an adequate measure for determining whether a patient is in a dissociated state. Both males and females with major depression evidenced a bimodal distribution of scores on the GNS with a distance of three standard deviations between their respective means. The GNS has identified a unique subgroup within the population of people diagnosed with major depression who manifest the unique phenomenological experience and associated symptoms of having no feelings. […] By evaluating a patient with the Glover Numbing Scale prior to administration of an opiate antagonist, and reassessing the patient after treatment, one of skill in the art can readily determine if the opiate antagonist is reversing or alleviating dissociation.
In one embodiment, the Glover Numbing Scale is a 35-item self-report questionnaire that systematically measures the frequency of experiences associated with “numbness,” an essential symptom of dissociation. Each item is rated on a seven-point scale by the patient, with scores corresponding to the following responses: 1, never; 2, very rarely; 3, rarely; 4, occasionally; 5, frequently, 6, very frequently; and 7, always. The highest possible score according to the Glover Numbing Scale is 245 (35 items by 7 points per item); a higher score indicates a more persistent degree of numbness and associated symptoms of dissociation. […] See S. Ramirez, supra at 194-95. According to the present invention, a Glover Numbing Scale score greater than about 100 should be considered consistent with the presence of dissociation. […] In another embodiment, a GNS score less than about 60 can be considered clinically non-significant.
That is, according to one embodiment of the present invention, a patient evaluated according to the Beck Depression Inventory to have a total BDI of about 10 or more, would be diagnosed as suffering from depression. According to the present invention, the depressed patient would then be evaluated according to the Glover Numbing Scale to assess the refractory nature of the patient's depression. If the patient scored about 100 or above, and positively to any of the eight salient items on the GNS, the patient is then affirmatively diagnosed as suffering from refractory depression characterized by dissociation according to one embodiment of the present invention. According to the present invention, the diagnosis may be made immediately after evaluating the patient according to the Glover Numbing Scale in conjunction with the Beck Depression Inventory in the context of an initial diagnostic assessment. The 35 items of the Glover Numbing Scale (GNS) describe the breadth of problems that can be associated with dissociation. Eight of the 35 items, however, uniquely discriminate dissociative experiences from symptoms of depression at a very high degree of probability. It is recommended that these eight items be scored separately at the time of the initial evaluation, and be used to monitor the patient's response to treatment at regular intervals until the patient is in full remission or has achieved the maximum beneficial response to medication.
At the time of remission the patient's responses to all of the other […] items on the GNS can be individually assessed by the clinician to ascertain if any residual symptoms are present which may require further attention. […]

For data set [3] the test system is unchanged. Put plainly: Beck Depression Inventory (BDI) questionnaire measuring depression in the treated patient. The data set is classed as in vivo, human. The source says: Although any known test for measuring depression may be used as an indicator or measure of depression, the Beck Depression Inventory (“BDI”) is a preferred test for the present invention. The Beck Depression Inventory is a questionnaire developed by Aaron T. Beck, M.D. in 1978 to measure the presence and severity of depression. This test provides an exemplary method of measuring depression over the course of treatment according to the present invention. This test can also be used for reassessing a patient during treatment. The reassessment may be used to determine choice and dosage of antidepressant. The second edition of the Beck Depression Inventory is a 21-item questionnaire with each item rated on a four-point Likert scale (0-3) with total scores ranging from 0 to 63. A higher score indicates a more severe level of depression. Generally, a total score below 10 indicates no depression; a score from 10-16 indicates mild depression; 17-29 indicates moderate depression; and 30-63 indicates severe depression. According to the present invention, a score of about 10 or above would indicate diagnosis and treatment according to the present invention, with the patient more preferably presenting a BDI score of about 17 or above. A BDI score of less than about 10 is clinically non-significant. Eleven items of the BDI specifically identify how a depressed person thinks and feels about himself or herself. […] In paraphrased form they are: feeling disappointment in oneself; critical of oneself; suicidal thoughts; sadness; discouraged about the future; feelings of being punished; guilty; feeling like a failure; feeling a lack of satisfaction; feeling old/unattractive/ugly; and loss of interest in people. See S. Ramirez, supra.

Another data set relates to patient. In words: Side effects reported by the patient during treatment. The data set is classed as in vivo, human. The settings on record: A person; nalmefene 50 to 150 mg b.i.d. As for the experimental part: They were reassessed with the BDI and the GNS. One week later a person was able to identify their mood as sad and lonely. […] Their BDI was now scored at 20 and their GNS score fell to 70.
It was decided to maintain the patient on amitriptyline while introducing nalmefene 50 mg. b.i.d. Four days later the dose of nalmefene was doubled. A person was monitored for side effects and changes of mood, using the eight salient items of the GNS and the eleven salient items of the BDI as guides. Mrs. […] During each visit the dose was […] 50 mg. to a final dose of 200 mg./day. Mrs.

[4] abbreviates: lithium carbonate 300 mg b.i.d. added to Prozac, Prozac increased to 60 mg/day over 4 weeks.
The mark [5] stands for this setting: A person, SAM-e 400 mg in divided doses, 800 mg five days later, started after the nalmefene course, one week afterward.

For `CC(NC(C)(C)C)C(=O)c1cccc(Cl)c1` (stereo not drawn) [Bupropion], the Clinical response entry with depression (Bupropion (sustain released) up to 300 mg/day added to paxil, other than some improvement in level of energy) was “little benefit”.
For the compound `O=C([O-])[O-].[Li+].[Li+]` [Lithium carbonate], in the data set on depression (setting [4]), the Clinical response entry is listed as “lack of response”. For the same compound, the Serum lithium levels in data set [1] is 0.6 and 0.7.
Turning to `Fc1ccc([C@@H]2CCNC[C@H]2COc2ccc3c(c2)OCO3)cc1` [Paxil], the Clinical response entry with depression (Paxil up to 60 mg/day, unsuccessfully administered) is “mild to moderate calming effect”. For the same compound, the “Response to antidepressants in the past” value in the data set with depression is “good responses”.
As for `CNCCC(Oc1ccc(C(F)(F)F)cc1)c1ccccc1` (stereo not drawn) [Prozac], the Clinical response result is “reducing irritability” in the data set with depression (initial treatment with Prozac, otherwise unchanged) and “lack of response” in the data set with depression (setting [4]).
As for `C[S+](CC[C@H](N)C(=O)[O-])C[C@H]1O[C@@H](n2cnc3c(N)ncnc32)[C@H](O)[C@@H]1O` (stereo partly drawn) [SAM-e], in data set [2] (setting [5]), the GNS score turned out to be 40. The compound also yielded a BDI score in data set [3] (setting [5]) of 6. In addition, in the data set on depression (SAM-e 400 then 800 mg, started after the nalmefene course, one week afterward), the “Clinical response (mood and energy)” value is “marked improvement in mood and energy level”.
As to `CN(C)CCC=C1c2ccccc2CCc2ccccc21` [amitriptyline], in the data set on depression (amitriptyline maintained while nalmefene introduced (50 mg b.i.d., doubled after four days)), the “Clinical response (antidepressant effect)” value is recorded as “began to feel the antidepressant effect for the first time”. Moreover, the Clinical response entry in the data set with depression (amitriptyline up to 300 mg/day, calming effect with some reduction of sadness and emptiness) is reported as “improved their level of energy”.
In the case of `CNCCCN1c2ccccc2CCc2ccccc21` [desipramine], the Clinical response entry with depression (desipramine up to 150 mg/day for 4 weeks, remained essentially depressed) is “some decrease of crying spells”. Besides, in the data set on depression, the “Response to antidepressants in the past” value was “good responses”.
Take `C=C1CC[C@@]2(O)[C@H]3Cc4ccc(O)c5c4[C@@]2(CCN3CC2CC2)[C@H]1O5` [nalmefene]: the GNS score in data set [2] (A person (Example 1), nalmefene 50 mg b.i.d. 3 days, 100 mg b.i.d. 4 days, then 150 mg b.i.d., one week later, score before treatment 142) is 70; in data set [2] (A person (Example 2), one week after nalmefene 200 mg b.i.d. reached, maintained on amitriptyline (final 200 mg/day), score before 148), 38. Also, the “Salient items of the GNS” value is on record as “not to have been experienced” in data set [2] (A person, nalmefene 200 mg b.i.d. with amitriptyline) and “not have been experienced” in data set [2] (A person, nalmefene up to 150 mg b.i.d., during the past week). The BDI score came to 20 in data set [3] (A person (Example 1), nalmefene 50 mg b.i.d. 3 days, 100 mg b.i.d. 4 days, then 150 mg b.i.d., one week later, score before treatment 23) and 5 in data set [3] (A person (Example 2), one week after nalmefene 200 mg b.i.d. reached, maintained on amitriptyline (final 200 mg/day), score before 24). Also, in the data set with depression (nalmefene up to 150 mg b.i.d., one week later), the “Clinical response (feelings)” value is recorded as “no longer experienced any lack of feelings”. For the same compound, in the data set on depression (one week after nalmefene 200 mg b.i.d. reached, with amitriptyline), the “Clinical response (patient report)” value is “felt their usual self once again”. The “Side effects of drowsiness and tiredness” value with patient was “mild and transient”.
As for `COc1ccc(C(CN(C)C)C2(O)CCCCC2)cc1` (stereo not drawn) [venlafaxine], the Clinical response result in the data set on depression (venlafaxine up to 375 mg/day, calming effect with some reduction of sadness and emptiness) was “improved their level of energy”.
